Test system: peripheral microvascular endothelial function
Experiment: PAT with reactive hyperemia after L-NMMA infusion followed by cocoa beverage
Type: in vivo, human
Method: Peripheral arterial tonometry (PAT) measurements were taken of three volunteers according to the following study. This is a non-invasive technique for examining peripheral microvascular endothelial function. Microvascular endothelial function is assessed by the direct measurement of changes in digital (finger) pulse volume following reactive hyperemia.
On study days, the subjects reported in a fasted state between 7:30 and 9:00 a.m. Body weight, resting heart rate, and blood pressure were all re-measured. […] Subjects then lied down on their backs to acclimatize to ambient conditions. After 30 minutes, a non-invasive, sterile, single-use finger probe was fitted to a finger and a baseline PAT reading was taken and recorded for 10 minutes. The subjects were then subjected to a reactive hyperemia procedure (“RH”) which consisted of a period of blood flow occlusion to the measurement arm using an upper arm blood pressure cuff, pressurized to achieve a supra-systolic level (equivalent to about 60 mm mercury above systolic blood pressure) for 5 minutes. Then the cuff was released and the data recorded for another five minutes. Following this first reading, subjects drank 3 bottles of Cocoa Drink A (total 483 mg). Over the next six hours, the PAT response was monitored at two, four and six hours.
The infusion of L-NMMA occurred over 30 minutes (1mg/kg/min for the first 3 minutes and then 0.2 mg/kg/min for the next 27 minutes). Following infusion of the L-NMMA, 3 bottles of the beverage were fed (483 mg) per subject. Readings were done for baseline, after infusion of L-NMMA and after consumption of cocoa.
Referring to Table 1, RH indicates PAT value following a reactive hyperemia procedure; “baseline” refers to baseline reading prior to occlusion period.
The data supports an NO-independent mechanism of action of the compounds described herein. […] This indicates the blood flow was affected via an NO-independent mechanism. Peripheral blood flow/vasodilation is a function of both NO and NO-independent vasodilators. The endothelium derived NO is one of the most important mediators of vascular tone; however, NO is not the only compound regulating vascular tone. As such, being able to operate via NO-independent mechanisms means that the compound of the invention can exert important vasodilatory effects on the microvasculature which are independent of an intact endothelium. If the endothelium is compromised in any way and simply cannot produce enough NO, the fact that the compounds of the invention act in an endothelium independent fashion offers greater therapeutic benefits, which was previously unexpected.

[1] = Subject #1, Day 11, after 30 min intravenous infusion of L-NMMA
[2] = Subject #5, Day 10, after 30 min intravenous infusion of L-NMMA
[3] = Subject #6, Day 11, after 30 min intravenous infusion of L-NMMA

## CNC(=N)NCCC[C@H](N)C(=O)O [LNMMA]
[1]
  Baseline (baseline PAT reading prior to occlusion period): 616
  RH (PAT value following a reactive hyperemia procedure): 1.61
[2]
  Baseline (baseline PAT reading prior to occlusion period): 689
  RH (PAT value following a reactive hyperemia procedure): 1.42
[3]
  Baseline (baseline PAT reading prior to occlusion period): 597
  RH (PAT value following a reactive hyperemia procedure): 1.75
All three subjects, after L-NMMA infusion
  change in the RH value: dramatic reduction
